According to patent US9642831B2, “Substituted chromanes and method of use” (AbbVie S.á.r.l., priority 2014, dated 2017):

Molecular target: F508delCFTR (Homo sapiens, UniProt P13569, DEL508-508)
Assay: Cell Surface Expression-Horse Radish Peroxidase (CSE-HRP) assay
Type: cell-based
Set-up: expressed in transfected cells; host or cells: CFBE41o- human lung derived epithelial cell line, doxycycline-inducible
Details: CFBE4lo-F508delCFTR-HRP cells; for EC50: 18-24 hours at 33° C., 8-point curve, highest concentration 20 μM, luminescence readout
In short: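 Following 18-24 h compound exposure at 33° C. Expression was doxycycline-induced beforehand. % activity versus DMSO and a 3 μM corrector control gave maximum activity and EC50 from a variable-Hill sigmoidal fit.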

[1] = maximum % activity at any tested concentration, normalized to on-plate positive control (3 μM Example 1)

F508delCFTR, sequence (P13569 with tags, fused parts or gaps DEL508-508): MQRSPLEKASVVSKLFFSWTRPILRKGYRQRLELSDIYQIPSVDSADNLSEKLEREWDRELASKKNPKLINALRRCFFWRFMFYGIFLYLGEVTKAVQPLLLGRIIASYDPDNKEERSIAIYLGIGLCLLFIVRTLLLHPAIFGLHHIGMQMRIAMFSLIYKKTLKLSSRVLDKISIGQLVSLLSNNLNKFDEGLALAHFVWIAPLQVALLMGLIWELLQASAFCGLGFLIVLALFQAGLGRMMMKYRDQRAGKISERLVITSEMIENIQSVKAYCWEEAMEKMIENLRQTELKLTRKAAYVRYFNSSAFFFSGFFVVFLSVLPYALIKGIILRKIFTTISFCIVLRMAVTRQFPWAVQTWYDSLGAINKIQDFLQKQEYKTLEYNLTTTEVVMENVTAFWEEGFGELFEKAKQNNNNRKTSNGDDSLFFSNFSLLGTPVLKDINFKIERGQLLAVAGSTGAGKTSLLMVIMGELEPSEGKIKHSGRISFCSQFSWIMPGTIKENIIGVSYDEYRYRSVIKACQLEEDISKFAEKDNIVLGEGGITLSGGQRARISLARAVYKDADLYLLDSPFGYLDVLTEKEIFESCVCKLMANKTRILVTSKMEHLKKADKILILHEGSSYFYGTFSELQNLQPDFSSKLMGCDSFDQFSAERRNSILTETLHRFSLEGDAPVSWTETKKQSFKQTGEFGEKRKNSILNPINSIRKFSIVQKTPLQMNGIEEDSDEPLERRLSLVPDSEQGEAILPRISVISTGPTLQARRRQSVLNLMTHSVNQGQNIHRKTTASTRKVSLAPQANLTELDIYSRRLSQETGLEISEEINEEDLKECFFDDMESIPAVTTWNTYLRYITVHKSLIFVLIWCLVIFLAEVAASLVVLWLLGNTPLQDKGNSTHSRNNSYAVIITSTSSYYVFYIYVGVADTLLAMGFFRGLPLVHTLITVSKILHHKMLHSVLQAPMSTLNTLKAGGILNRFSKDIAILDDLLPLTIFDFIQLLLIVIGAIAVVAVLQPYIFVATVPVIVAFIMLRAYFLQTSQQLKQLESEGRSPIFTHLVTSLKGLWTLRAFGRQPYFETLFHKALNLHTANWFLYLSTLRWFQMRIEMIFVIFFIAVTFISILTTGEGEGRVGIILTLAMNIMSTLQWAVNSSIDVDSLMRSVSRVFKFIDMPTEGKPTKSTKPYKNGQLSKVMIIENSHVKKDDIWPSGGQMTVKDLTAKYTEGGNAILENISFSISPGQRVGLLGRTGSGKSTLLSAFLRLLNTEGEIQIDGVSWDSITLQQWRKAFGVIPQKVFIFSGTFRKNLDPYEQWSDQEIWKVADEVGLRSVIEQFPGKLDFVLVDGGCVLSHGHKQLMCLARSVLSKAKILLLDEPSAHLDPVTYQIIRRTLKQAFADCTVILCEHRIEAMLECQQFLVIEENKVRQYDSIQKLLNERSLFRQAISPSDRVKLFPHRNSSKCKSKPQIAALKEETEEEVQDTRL

Row | EC50 [nM] | Emax [1] [%] | Maximum % activity (%) [1] [%] | SMILES
1 | ≥ 20000 | 5 |  | COC(=O)c1cccc([C@H]2C[C@@H](NC(=O)C3(c4ccc5c(c4)OC(F)(F)O5)CC3)c3ccc(Cl)nc3O2)c1 (racemic) [Example 112, methyl rac-3-[(2R,4R)-7-chloro-4-({[1-(2,2-difluoro-1,3-benzodioxol-5-yl)cyclopropyl]carbonyl}amino)-3,4-dihydro-2H-pyrano[2,3-b]pyridin-2-yl]benzoate]
2 | ≥ 20000 | 15 |  | O=C(O)COc1ccc2c(c1)O[C@@H](c1cccc(C(=O)O)c1)C[C@H]2NC(=O)C1(c2ccc3c(c2)OC(F)(F)O3)CC1 [Example 96, 3-[(2R,4R)-7-(carboxymethoxy)-4-({[1-(2,2-difluoro-1,3-benzodioxol-5-yl)cyclopropyl]carbonyl}amino)-3,4-dihydro-2H-chromen-2-yl]benzoic acid]
3 | 3440 | 42 |  | CC1(C)C[C@@H](NC(=O)C2(c3ccc4c(c3)OC(F)(F)O4)CC2)c2ccc(F)c(Cl)c2O1 [Example 90, N-[(4R)-8-chloro-7-fluoro-2,2-dimethyl-3,4-dihydro-2H-chromen-4-yl]-1-(2,2-difluoro-1,3-benzodioxol-5-yl)cyclopropanecarboxamide]
4 | 6650 | 101 |  | COc1ccc2c(c1)O[C@H](c1nc(C(=O)O)cs1)C[C@@H]2NC(=O)C1(c2ccc3c(c2)OC(F)(F)O3)CC1 (stereo in doubt) [Example 158, rel-2-[(2S,4S)-4-({[1-(2,2-difluoro-1,3-benzodioxol-5-yl)cyclopropyl]carbonyl}amino)-7-methoxy-3,4-dihydro-2H-chromen-2-yl]-1,3-thiazole-4-carboxylic acid]
5 | 500 | 110 |  | COC(=O)c1ccc([C@H]2C[C@@H](NC(=O)C3(c4ccc5c(c4)OC(F)(F)O5)CC3)c3ccccc3O2)cc1 [Example 120, methyl 4-[(2R,4R)-4-({[1-(2,2-difluoro-1,3-benzodioxol-5-yl)cyclopropyl]carbonyl}amino)-3,4-dihydro-2H-chromen-2-yl]benzoate]
6 | 2790 | 39 |  | COc1ccc2c(c1)O[C@@H](C(=O)NC(CO)c1ccccc1)C[C@@H]2NC(=O)C1(c2ccc3c(c2)OC(F)(F)O3)CC1 (mixture of isomers) [Example 190, rac-(2R,4S)-4-({[1-(2,2-difluoro-1,3-benzodioxol-5-yl)cyclopropyl]carbonyl}amino)-N-(2-hydroxy-1-phenylethyl)-7-methoxy-3,4-dihydro-2H-chromene-2-carboxamide]
7 | 4630 | 146 |  | O=C(N[C@@H]1CC(CF)(CF)Oc2cc(Cl)ccc21)C1(c2ccc3c(c2)OC(F)(F)O3)CC1 [Example 87, N-[(4R)-7-chloro-2,2-bis(fluoromethyl)-3,4-dihydro-2H-chromen-4-yl]-1-(2,2-difluoro-1,3-benzodioxol-5-yl)cyclopropanecarboxamide]
8 | 2000 | 65 |  | CCCN(CCO)C(=O)[C@H]1C[C@@H](NC(=O)C2(c3ccc4c(c3)OC(F)(F)O4)CC2)c2ccc(OC)cc2O1 (racemic) [Example 166, rac-(2R,4R)-4-({[1-(2,2-difluoro-1,3-benzodioxol-5-yl)cyclopropyl]carbonyl}amino)-N-(2-hydroxyethyl)-7-methoxy-N-propyl-3,4-dihydro-2H-chromene-2-carboxamide]
9 | 2580 | 73 |  | COc1ccc2c(c1)O[C@@H](C1CC1)C[C@@H]2NC(=O)C1(c2ccc3c(c2)OC(F)(F)O3)CC1 (racemic) [Example 41, rac-N-[(2R,4S)-2-cyclopropyl-7-methoxy-3,4-dihydro-2H-chromen-4-yl]-1-(2,2-difluoro-3-benzodioxol-5-yl)cyclopropanecarboxamide]
10 | 350 | 113 |  | COC(=O)c1cccc([C@H]2C[C@@H](NC(=O)C3(c4ccc5c(c4)OC(F)(F)O5)CC3)c3ccc(C)cc3O2)c1 [Example 18, methyl 3-[(2R,4R)-4-({[1-(2,2-difluoro-1,3-benzodioxol-5-yl)cyclopropyl]carbonyl}amino)-7-methyl-3,4-dihydro-2H-chromen-2-yl]benzoate]
11 | 1230 | 112 |  | COc1ccc2c(c1)O[C@@H](c1nc(C(=O)O)cs1)C[C@H]2NC(=O)C1(c2ccc3c(c2)OC(F)(F)O3)CC1 (stereo in doubt) [Example 156, rel-2-[(2R,4R)-4-({[1-(2,2-difluoro-1,3-benzodioxol-5-yl)cyclopropyl]carbonyl}amino)-7-methoxy-3,4-dihydro-2H-chromen-2-yl]-1,3-thiazole-4-carboxylic acid]
12 | 1900 | 84 |  | O=C(O)c1ccc([C@H]2C[C@H](NC(=O)C3(c4ccc5c(c4)OC(F)(F)O5)CC3)c3ccccc3O2)nc1 (racemic) [Example 153, rac-6-[(2R,4S)-4-({[1-(2,2-difluoro-1,3-benzodioxol-5-yl)cyclopropyl]carbonyl}amino)-3,4-dihydro-2H-chromen-2-yl]pyridine-3-carboxylic acid]
13 | 1940 | 77 |  | COc1ccc2c(c1)OC(C1CN(C(=O)OC(C)(C)C)C1)CC2NC(=O)C1(c2ccc3c(c2)OC(F)(F)O3)CC1 (mixture of isomers) [Example 115, tert-butyl 3-[4-({[1-(2,2-difluoro-1,3-benzodioxol-5-yl)cyclopropyl]carbonyl}amino)-7-methoxy-3,4-dihydro-2H-chromen-2-yl]azetidine-1-carboxylate]
14 | 2240 | 91 |  | C[C@]1(C(F)F)C[C@@H](NC(=O)C2(c3ccc4c(c3)OC(F)(F)O4)CC2)c2ccc(Cl)cc2O1 [Example 84, N-[(2R,4R)-7-chloro-2-(difluoromethyl)-2-methyl-3,4-dihydro-2H-chromen-4-yl]-1-(2,2-difluoro-1,3-benzodioxol-5-yl)cyclopropanecarboxamide]
15 | > 20000 | 4 |  | COc1ccc2c(c1)O[C@@H](C(=O)O)C[C@@H]2NC(=O)C1(c2ccc3c(c2)OC(F)(F)O3)CC1 (racemic) [Example 134, rac-(2R,4S)-4-({[1-(2,2-difluoro-1,3-benzodioxol-5-yl)cyclopropyl]carbonyl}amino)-7-methoxy-3,4-dihydro-2H-chromene-2-carboxylic acid]
16 | 3830 | 58 |  | COc1ccc2c(c1)O[C@@H](C(=O)NC(C)(C)CO)C[C@@H]2NC(=O)C1(c2ccc3c(c2)OC(F)(F)O3)CC1 (racemic) [Example 189, rac-(2R,4S)-4-({[1-(2,2-difluoro-1,3-benzodioxol-5-yl)cyclopropyl]carbonyl}amino)-N-(1-hydroxy-2-methylpropan-2-yl)-7-methoxy-3,4-dihydro-2H-chromene-2-carboxamide]
17 | 380 | 120 |  | COC(=O)c1cccc([C@H]2C[C@@H](NC(=O)C3(c4ccc5c(c4)OC(F)(F)O5)CC3)c3ccc(OC)cc3O2)c1 [Example 6, methyl 3-[(2R,4R)-4-({[1-(2,2-difluoro-1,3-benzodioxol-5-yl)cyclopropyl]carbonyl}amino)-7-methoxy-3,4-dihydro-2H-chromen-2-yl]benzoate]
18 | 6350 | 59 |  | O=C(O)C1CC(C2CC(NC(=O)C3(c4ccc5c(c4)OC(F)(F)O5)CC3)c3ccccc3O2)C1 (stereo not drawn) [Example 152, 3-[4-({[1-(2,2-difluoro-1,3-benzodioxol-5-yl)cyclopropyl]carbonyl}amino)-3,4-dihydro-2H-chromen-2-yl]cyclobutanecarboxylic acid]
19 | 2450 | 96 |  | O=C(O)c1csc([C@H]2C[C@@H](NC(=O)C3(c4ccc5c(c4)OC(F)(F)O5)CC3)c3ccccc3O2)n1 (stereo in doubt) [Example 145, rel-2-[(2R,4R)-4-({[1-(2,2-difluoro-1,3-benzodioxol-5-yl)cyclopropyl]carbonyl}amino)-3,4-dihydro-2H-chromen-2-yl]-1,3-thiazole-4-carboxylic acid]
20 | 5530 | 98 |  | CCC1(CC)C[C@@H](NC(=O)C2(c3ccc4c(c3)OC(F)(F)O4)CC2)c2ccccc2O1 [Example 74, N-[(4R)-2,2-diethyl-3,4-dihydro-2H-chromen-4-yl]-1-(2,2-difluoro-1,3-benzodioxol-5-yl)cyclopropanecarboxamide]
21 | 2100 | 73 |  | COc1ccc2c(c1)O[C@@H](C(=O)NC(CO)c1ccccc1OC)C[C@@H]2NC(=O)C1(c2ccc3c(c2)OC(F)(F)O3)CC1 (mixture of isomers) [Example 197, rac-(2R,4S)-4-({[1-(2,2-difluoro-1,3-benzodioxol-5-yl)cyclopropyl]carbonyl}amino)-N-[2-hydroxy-1-(2-methoxyphenyl)ethyl]-7-methoxy-3,4-dihydro-2H-chromene-2-carboxamide]
22 | 1130 | 99 |  | COc1ccc2c(c1)OC1(CCN(C(=O)C(C)(C)CO)CC1)CC2NC(=O)C1(c2ccc3c(c2)OC(F)(F)O3)CC1 (stereo not drawn) [Example 107, 1-(2,2-difluoro-1,3-benzodioxol-5-yl)-N-[1′-(3-hydroxy-2,2-dimethylpropanoyl)-7-methoxy-3,4-dihydrospiro[chromene-2,4′-piperidin]-4-yl]cyclopropanecarboxamide]
23 | 1010 | 93 |  | Cc1ccc2c(c1)O[C@@H](c1cccc(C(=O)N3CCCC(CO)C3)c1)C[C@H]2NC(=O)C1(c2ccc3c(c2)OC(F)(F)O3)CC1 (stereo partly drawn) [Example 52, 1-(2,2-difluoro-1,3-benzodioxol-5-yl)-N-[(2R,4R)-2-(3-{[3-(hydroxymethyl)piperidin-1-yl]carbonyl}phenyl)-7-methyl-3,4-dihydro-2H-chromen-4-yl]cyclopropanecarboxamide]
24 | 7020 |  | 25 | O=C(O)c1cnc(C2CC(NC(=O)C3(c4ccc5c(c4)OC(F)(F)O5)CC3)c3ccccc3O2)s1 (single isomer, unassigned) [Example 133]
